In this assay the test system is L1210 leukemia ip in BDF1 mice, survival T/C. Description: NCI In Vivo Anticancer Drug Screen. Data for tumor model L1210 Leukemia (intraperitoneal) in B6D2F1 (BDF1) mice. The note with it: endpoint: mean survival time, higher = longer survival. The method in brief:
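Transplanted-tumor mice were given test agent; controls received vehicle only. Survival readings from the two groups were divided (treated over control).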

Where [1] appears, read: dose: 100.0 mg/kg/injection, schedule: Q01DX009 (ip), vehicle: Klucel (hydroxypropylcellulose) (HPC).
Where [2] appears, read: dose: 200.0 mg/kg/injection, schedule: Q01DX009 (ip), vehicle: Klucel (hydroxypropylcellulose) (HPC).
The mark [3] stands for this setting: dose: 400.0 mg/kg/injection, schedule: Q01DX009 (ip), vehicle: Klucel (hydroxypropylcellulose) (HPC).
Setting [4] is: dose: 100.0 mg/kg/injection, schedule: Q01DX009 (ip), vehicle: saline with Tween-80.
Setting [5] is: dose: 200.0 mg/kg/injection, schedule: Q01DX009 (ip), vehicle: saline with Tween-80.
The mark [6] stands for this setting: dose: 200.0 mg/kg/injection, schedule: Q04DX003 (ip), vehicle: saline.
Where [7] appears, read: dose: 400.0 mg/kg/injection, schedule: Q04DX003 (ip), vehicle: saline.
The mark [8] stands for this setting: dose: 100.0 mg/kg/injection, schedule: Q01DX001 (ip), vehicle: saline with Tween-80.

Where “and” joins values, the source holds several entries; their conditions need not be identical. Equal entries are not always repeated. Inconclusive results and toxic doses are left out.

With `COc1ncc(F)c(OC)n1`, the T/C was 100 % of control (dose: 100.0 mg/kg/injection, schedule: Q01DX001 (ip), vehicle: saline); 96 % of control (dose: 200.0 mg/kg/injection, schedule: Q01DX001 (ip), vehicle: saline); 91 % of control (dose: 400.0 mg/kg/injection, schedule: Q01DX001 (ip), vehicle: saline).
On to `CCOC(=O)CCC(NC(=O)N(CCCl)CCCl)C(=O)OCC` (configuration not stated), for which the T/C is, setting by setting: (dose: 250.0 mg/kg/injection, schedule: Q01DX Z (ip), vehicle: water) 90 % of control; (dose: 400.0 mg/kg/injection, schedule: Q01DX009 (ip), vehicle: saline) 183 % of control.
On to `COc1ccc(C)cc1NC(=O)C(Br)C(Br)C(=O)O` (configuration not stated), for which the T/C is, setting by setting: under setting [1], 100 % of control; under setting [2], 97 % of control; under setting [3], 96 % of control.
As to `CC[C@@H]1O[C@@H]([C@@H]2CC[C@](O)([C@]3(C)CC[C@@H]([C@@H](C)[C@@]4(O)CC[C@H](C)[C@@H](C[C@@]5(O)O[C@@H]([C@@H](C)[C@H](O)C[C@H]6CC[C@H](C)[C@@H]([C@@H](C)C(=O)O)O6)CC[C@@H]5C)O4)O3)O2)CC[C@@]1(C)O`, the T/C is 93 % of control (dose: 0.09 mg/kg/injection, schedule: Q04DX002 (ip), vehicle: saline); 90 % of control (dose: 0.19 mg/kg/injection, schedule: Q04DX002 (ip), vehicle: saline); 87 % of control (dose: 0.39 mg/kg/injection, schedule: Q04DX002 (ip), vehicle: saline).
As for `CC(C)C(Br)C(=O)NCC(=O)NCC(=O)O` (configuration not stated), the T/C under setting [4] was 93 % of control; the T/C under setting [5] is 94 % of control; the T/C (dose: 400.0 mg/kg/injection, schedule: Q01DX009 (ip), vehicle: saline with Tween-80) is 92 % of control.
Consider `CS(=O)(=O)OCC(=O)NCCNC(=O)COS(C)(=O)=O`, for which the T/C (dose: 25.0 mg/kg/injection, schedule: Q01DX Z (ip), vehicle: saline) was 109 % of control; the T/C (dose: 33.0 mg/kg/injection, schedule: Q01DX Z (ip), vehicle: carboxymethylcellulose (CMC)) is 113 % of control and 120 % of control; the T/C (dose: 47.0 mg/kg/injection, schedule: Q01DX Z (ip), vehicle: carboxymethylcellulose (CMC)) is 122 % of control; the T/C (dose: 50.0 mg/kg/injection, schedule: Q01DX015 (ip), vehicle: saline) was 108 % of control and 122 % of control; the T/C (dose: 50.0 mg/kg/injection, schedule: Q01DX Z (ip), vehicle: carboxymethylcellulose (CMC)) is 104 % of control; the T/C (dose: 50.0 mg/kg/injection, schedule: Q01DX Z (ip), vehicle: saline) is 109 % of control. Also, the T/C is 111 % of control (dose: 50.0 mg/kg/injection, schedule: Q04DX003 (ip), vehicle: carboxymethylcellulose (CMC)); 106 % of control (dose: 66.0 mg/kg/injection, schedule: Q01DX Z (ip), vehicle: carboxymethylcellulose (CMC)); 120 % of control (dose: 75.0 mg/kg/injection, schedule: Q01DX Z (ip), vehicle: carboxymethylcellulose (CMC)); 114 % of control (dose: 100.0 mg/kg/injection, schedule: Q01DX015 (ip), vehicle: saline); 115 % of control (dose: 100.0 mg/kg/injection, schedule: Q01DX Z (ip), vehicle: saline); 110 % of control (dose: 100.0 mg/kg/injection, schedule: Q04DX003 (ip), vehicle: carboxymethylcellulose (CMC)). Besides, the T/C runs as follows: (dose: 105.0 mg/kg/injection, schedule: Q01DX Z (ip), vehicle: carboxymethylcellulose (CMC)) 154 % of control; (dose: 115.0 mg/kg/injection, schedule: Q01DX Z (ip), vehicle: carboxymethylcellulose (CMC)) 120 % of control; (dose: 175.0 mg/kg/injection, schedule: Q01DX Z (ip), vehicle: carboxymethylcellulose (CMC)) 118 % of control; (dose: 180.0 mg/kg/injection, schedule: Q01DX009 (ip), vehicle: saline) 168 % of control; (dose: 200.0 mg/kg/injection, schedule: Q04DX003 (ip), vehicle: carboxymethylcellulose (CMC)) 119 % of control; under setting [6], 111 % of control. Moreover, the T/C is, setting by setting: (dose: 225.0 mg/kg/injection, schedule: Q01DX Z (ip), vehicle: carboxymethylcellulose (CMC)) 92 % of control; (dose: 256.0 mg/kg/injection, schedule: Q01DX009 (ip), vehicle: saline) 161 % of control and 169 % of control; (dose: 400.0 mg/kg/injection, schedule: Q01DX015 (ip), vehicle: saline) 162 % of control; (dose: 400.0 mg/kg/injection, schedule: Q01DX Z (ip), vehicle: carboxymethylcellulose (CMC)) 102 % of control; (dose: 400.0 mg/kg/injection, schedule: Q01DX Z (ip), vehicle: saline) 105 % of control; under setting [7], 116 % of control. Under “dose: 800.0 mg/kg/injection, schedule: Q04DX003 (ip), vehicle: saline”, the T/C is 116 % of control.
Take `CC1Cc2c(n[nH]c2CC2CC(=O)NC(=O)C2)C(C)C1` (configuration not stated): the T/C by setting is: (dose: 100.0 mg/kg/injection, schedule: Q01DX001 (ip), vehicle: carboxymethylcellulose (CMC)) 100 % of control; (dose: 200.0 mg/kg/injection, schedule: Q01DX001 (ip), vehicle: carboxymethylcellulose (CMC)) 97 % of control; (dose: 400.0 mg/kg/injection, schedule: Q01DX001 (ip), vehicle: carboxymethylcellulose (CMC)) 101 % of control.
With `CC1CN=C(c2ccc(N)cc2)S1` (configuration not stated), the T/C (dose: 87.0 mg/kg/injection, schedule: Q04DX003 (ip), vehicle: Klucel (hydroxypropylcellulose) (HPC)) was 94 % of control and the T/C (dose: 175.0 mg/kg/injection, schedule: Q04DX003 (ip), vehicle: Klucel (hydroxypropylcellulose) (HPC)) is 105 % of control.
`O=C(O)c1ccc(NC(=O)c2ccc3ccccc3c2O)cc1`: the T/C by setting is: under setting [8], 104 % of control; under setting [4], 109 % of control; (dose: 100.0 mg/kg/injection, schedule: Q04DX003 (ip), vehicle: saline with Tween-80) 102 % of control; (dose: 200.0 mg/kg/injection, schedule: Q01DX001 (ip), vehicle: saline with Tween-80) 103 % of control; under setting [5], 110 % of control; (dose: 200.0 mg/kg/injection, schedule: Q04DX003 (ip), vehicle: saline with Tween-80) 100 % of control. Besides, the T/C runs as follows: (dose: 400.0 mg/kg/injection, schedule: Q01DX001 (ip), vehicle: saline with Tween-80) 101 % of control; (dose: 400.0 mg/kg/injection, schedule: Q04DX003 (ip), vehicle: saline with Tween-80) 96 % of control.
Take `O=C1c2ccccc2C(=O)c2c1cccc2S(=O)(=O)O`: the T/C reads like this: (dose: 25.0 mg/kg/injection, schedule: Q01DX001 (ip), vehicle: saline with Tween-80) 105 % of control; (dose: 50.0 mg/kg/injection, schedule: Q01DX001 (ip), vehicle: saline with Tween-80) 103 % of control; under setting [8], 105 % of control.
`ClCCN(CCCCCCN(CCCl)Cc1ccccc1)Cc1ccccc1`: the T/C is 104 % of control (dose: 2.5 mg/kg/injection, schedule: Q04DX002 (ip), vehicle: Klucel (hydroxypropylcellulose) (HPC)) and 100 % of control (dose: 5.0 mg/kg/injection, schedule: Q04DX002 (ip), vehicle: Klucel (hydroxypropylcellulose) (HPC)).
In the case of `CC(=O)N(c1ccccc1)c1nc(/C=N\NC(N)=S)cs1`, the T/C is, setting by setting: under setting [1], 105 % of control; under setting [2], 106 % of control; under setting [3], 100 % of control.
`OCCNCCN1CCN(CCCN2c3ccccc3Sc3ccc(C(F)(F)F)cc32)CC1`: the T/C reads like this: (dose: 6.25 mg/kg/injection, schedule: Q01DX009 (ip), vehicle: saline) 111 % of control; (dose: 6.25 mg/kg/injection, schedule: Q04DX003 (ip), vehicle: saline) 104 % of control; (dose: 12.5 mg/kg/injection, schedule: Q01DX009 (ip), vehicle: saline) 105 % of control; (dose: 12.5 mg/kg/injection, schedule: Q04DX003 (ip), vehicle: saline) 101 % of control; (dose: 25.0 mg/kg/injection, schedule: Q01DX009 (ip), vehicle: saline) 88 % of control; (dose: 25.0 mg/kg/injection, schedule: Q04DX003 (ip), vehicle: saline) 95 % of control.
Take `O=C(C1C2CCC(CC2)C1C(=O)N1CCCCC1)N1CCCCC1` (configuration not stated): the T/C reads like this: (dose: 100.0 mg/kg/injection, schedule: Q04DX003 (ip), vehicle: saline) 108 % of control; under setting [6], 100 % of control; under setting [7], 100 % of control.
For `COc1cc(Cl)ccc1NC(=O)N(C)C1CCCCC1`, the T/C is 104 % of control under setting [1], 104 % of control under setting [2] and 95 % of control under setting [3].
